# According to the kinase profiling compilation of Christmann-Franck et al. (2016):
# Key:
# Test in all cases: KINOMEscan competition binding
# Details in all cases: compound 10.0 µM
# INSRR (human) = INSRR (human) (UniProt P14616)
# IRAK3 (human) = IRAK3 (human) (UniProt Q9Y616)
# DYRK2 (human) = DYRK2 (human) (UniProt Q92630)
# MAP3K5 (human) = MAP3K5 (human) (UniProt Q99683)
# PRKCQ (human) = PRKCQ (human) (UniProt Q04759)
# AKT1 (human) = AKT1 (human) (UniProt P31749)
# NEK2 (human) = NEK2 (human) (UniProt P51955)
# CDK3 (human) = CDK3 (human) (UniProt Q00526)
# ITK (human) = ITK (human) (UniProt Q08881)
# MET (human) = MET (human) (UniProt P08581)
# MAP3K3 (human) = MAP3K3 (human) (UniProt Q99759)
# PIK3CA (human) = PIK3CA (human) (UniProt P42336)
# CDK9 (human) = CDK9 (human) (UniProt P50750)
# ERBB2 (human) = ERBB2 (human) (UniProt P04626)
# NUAK1 (human) = NUAK1 (human) (UniProt O60285)
# RIPK2 (human) = RIPK2 (human) (UniProt O43353)
# ULK1 (human) = ULK1 (human) (UniProt O75385)
# CDKL1 (human) = CDKL1 (human) (UniProt Q00532)
# MAPK9 (human) = MAPK9 (human) (UniProt P45984)
# AAK1 (human) = AAK1 (human) (UniProt Q2M2I8)
# MYLK2 (human) = MYLK2 (human) (UniProt Q9H1R3)
# CSNK1G2 (human) = CSNK1G2 (human) (UniProt P78368)
# PRKCI (human) = PRKCI (human) (UniProt P41743)
# FGR (human) = FGR (human) (UniProt P09769)
# YES1 (human) = YES1 (human) (UniProt P07947)
# [1] = tested on: PIK3CA (human), P42336 [M1043I]
# TAOK2 (human) = TAOK2 (human) (UniProt Q9UL54)
# HUNK (human) = HUNK (human) (UniProt P57058)
# RIOK1 (human) = RIOK1 (human) (UniProt Q9BRS2)
# TLK2 (human) = TLK2 (human) (UniProt Q86UE8)
# CDK7 (human) = CDK7 (human) (UniProt P50613)
# NEK7 (human) = NEK7 (human) (UniProt Q8TDX7)
# CLK3 (human) = CLK3 (human) (UniProt P49761)
# PIM1 (human) = PIM1 (human) (UniProt P11309)
# PTK2 (human) = PTK2 (human) (UniProt Q05397)
# CAMK2G (human) = CAMK2G (human) (UniProt Q13555)
# RET (human) = RET (human) (UniProt P07949)
# PRKG2 (human) = PRKG2 (human) (UniProt Q13237)
# PRKG1 (human) = PRKG1 (human) (UniProt Q13976)
# YSK4 (human) = YSK4 (human) (UniProt Q56UN5)
# CDK2 (human) = CDK2 (human) (UniProt P24941)
# PRKG2 (human), sequence (Q13237 whole entry, looked up): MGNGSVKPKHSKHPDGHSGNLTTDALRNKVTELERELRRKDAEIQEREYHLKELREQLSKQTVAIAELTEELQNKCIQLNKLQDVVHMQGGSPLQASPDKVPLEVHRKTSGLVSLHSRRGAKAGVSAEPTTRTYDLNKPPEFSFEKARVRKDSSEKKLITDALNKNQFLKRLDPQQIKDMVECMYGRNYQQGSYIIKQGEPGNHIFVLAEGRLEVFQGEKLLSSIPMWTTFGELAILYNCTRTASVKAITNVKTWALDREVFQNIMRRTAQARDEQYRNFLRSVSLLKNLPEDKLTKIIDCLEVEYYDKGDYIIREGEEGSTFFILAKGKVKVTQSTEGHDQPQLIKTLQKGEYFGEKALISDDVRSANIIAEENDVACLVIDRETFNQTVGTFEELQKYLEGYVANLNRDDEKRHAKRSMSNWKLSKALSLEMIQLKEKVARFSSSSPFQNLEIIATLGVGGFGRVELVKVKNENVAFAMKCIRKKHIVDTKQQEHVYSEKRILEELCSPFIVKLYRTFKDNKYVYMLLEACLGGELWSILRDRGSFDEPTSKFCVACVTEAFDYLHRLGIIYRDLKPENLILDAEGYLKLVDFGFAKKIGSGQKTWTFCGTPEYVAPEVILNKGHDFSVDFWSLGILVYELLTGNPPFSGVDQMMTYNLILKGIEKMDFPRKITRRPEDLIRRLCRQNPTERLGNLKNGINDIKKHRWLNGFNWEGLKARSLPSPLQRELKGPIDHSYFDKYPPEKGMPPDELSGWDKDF
# ITK (human), sequence (Q08881 whole entry, looked up): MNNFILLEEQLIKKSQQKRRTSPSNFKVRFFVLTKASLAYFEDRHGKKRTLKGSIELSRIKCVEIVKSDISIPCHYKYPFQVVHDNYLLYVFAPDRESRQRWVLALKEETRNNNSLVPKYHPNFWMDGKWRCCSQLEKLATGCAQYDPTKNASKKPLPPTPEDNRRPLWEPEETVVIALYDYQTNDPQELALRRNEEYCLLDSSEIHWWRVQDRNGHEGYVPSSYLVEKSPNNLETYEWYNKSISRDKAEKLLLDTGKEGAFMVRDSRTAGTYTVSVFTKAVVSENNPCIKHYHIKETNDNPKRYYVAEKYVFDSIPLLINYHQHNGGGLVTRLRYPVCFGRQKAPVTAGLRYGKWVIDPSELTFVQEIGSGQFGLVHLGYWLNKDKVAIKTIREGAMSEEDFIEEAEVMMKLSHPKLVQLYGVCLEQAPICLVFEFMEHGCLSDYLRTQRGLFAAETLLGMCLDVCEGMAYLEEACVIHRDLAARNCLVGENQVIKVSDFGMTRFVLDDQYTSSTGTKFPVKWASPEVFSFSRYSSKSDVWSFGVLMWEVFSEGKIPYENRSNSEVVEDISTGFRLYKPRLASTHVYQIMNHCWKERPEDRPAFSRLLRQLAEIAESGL
# PRKCQ (human), sequence (Q04759 whole entry, looked up): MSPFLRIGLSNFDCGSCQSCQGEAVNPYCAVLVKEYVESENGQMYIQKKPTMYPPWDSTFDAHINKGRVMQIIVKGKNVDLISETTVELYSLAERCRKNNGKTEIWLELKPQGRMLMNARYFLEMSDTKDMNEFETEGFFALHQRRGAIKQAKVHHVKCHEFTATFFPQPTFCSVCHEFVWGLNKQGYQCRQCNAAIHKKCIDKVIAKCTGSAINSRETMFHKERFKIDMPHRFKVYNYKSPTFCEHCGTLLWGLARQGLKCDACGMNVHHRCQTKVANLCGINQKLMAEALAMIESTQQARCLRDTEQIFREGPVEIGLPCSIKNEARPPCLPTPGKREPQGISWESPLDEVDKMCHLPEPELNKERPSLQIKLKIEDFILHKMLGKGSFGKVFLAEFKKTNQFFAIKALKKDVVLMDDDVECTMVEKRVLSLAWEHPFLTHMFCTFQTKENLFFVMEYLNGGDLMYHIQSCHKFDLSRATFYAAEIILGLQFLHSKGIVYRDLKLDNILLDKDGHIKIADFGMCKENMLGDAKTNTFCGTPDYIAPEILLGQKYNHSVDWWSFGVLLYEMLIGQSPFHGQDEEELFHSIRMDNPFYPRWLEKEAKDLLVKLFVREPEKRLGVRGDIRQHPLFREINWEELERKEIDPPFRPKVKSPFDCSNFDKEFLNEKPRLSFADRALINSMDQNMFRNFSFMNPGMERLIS
# YES1 (human), sequence (P07947 whole entry, looked up): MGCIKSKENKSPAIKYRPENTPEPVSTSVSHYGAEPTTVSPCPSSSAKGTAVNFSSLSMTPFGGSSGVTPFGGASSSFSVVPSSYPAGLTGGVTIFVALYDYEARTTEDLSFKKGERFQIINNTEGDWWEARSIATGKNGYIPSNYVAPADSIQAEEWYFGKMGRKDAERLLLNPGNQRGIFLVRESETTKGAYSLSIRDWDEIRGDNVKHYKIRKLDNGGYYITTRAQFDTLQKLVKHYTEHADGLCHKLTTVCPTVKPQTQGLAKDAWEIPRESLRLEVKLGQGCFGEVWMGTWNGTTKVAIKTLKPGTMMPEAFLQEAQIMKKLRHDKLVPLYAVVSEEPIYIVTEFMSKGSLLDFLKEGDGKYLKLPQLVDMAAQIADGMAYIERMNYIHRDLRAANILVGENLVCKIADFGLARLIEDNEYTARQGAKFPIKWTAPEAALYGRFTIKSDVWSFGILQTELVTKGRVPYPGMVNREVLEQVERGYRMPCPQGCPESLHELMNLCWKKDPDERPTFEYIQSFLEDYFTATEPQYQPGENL
# NEK7 (human), sequence (Q8TDX7 whole entry, looked up): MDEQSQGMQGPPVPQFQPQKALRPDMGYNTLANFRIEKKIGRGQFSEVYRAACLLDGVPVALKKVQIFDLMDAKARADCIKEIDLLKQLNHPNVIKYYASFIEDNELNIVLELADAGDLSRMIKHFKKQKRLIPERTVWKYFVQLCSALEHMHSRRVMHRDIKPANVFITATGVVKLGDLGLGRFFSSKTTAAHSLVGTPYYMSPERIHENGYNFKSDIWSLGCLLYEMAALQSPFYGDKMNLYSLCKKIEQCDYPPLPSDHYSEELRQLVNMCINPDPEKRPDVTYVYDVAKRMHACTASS
# PIK3CA (human), P42336 [M1043I], sequence (P42336 whole entry M1043I, looked up): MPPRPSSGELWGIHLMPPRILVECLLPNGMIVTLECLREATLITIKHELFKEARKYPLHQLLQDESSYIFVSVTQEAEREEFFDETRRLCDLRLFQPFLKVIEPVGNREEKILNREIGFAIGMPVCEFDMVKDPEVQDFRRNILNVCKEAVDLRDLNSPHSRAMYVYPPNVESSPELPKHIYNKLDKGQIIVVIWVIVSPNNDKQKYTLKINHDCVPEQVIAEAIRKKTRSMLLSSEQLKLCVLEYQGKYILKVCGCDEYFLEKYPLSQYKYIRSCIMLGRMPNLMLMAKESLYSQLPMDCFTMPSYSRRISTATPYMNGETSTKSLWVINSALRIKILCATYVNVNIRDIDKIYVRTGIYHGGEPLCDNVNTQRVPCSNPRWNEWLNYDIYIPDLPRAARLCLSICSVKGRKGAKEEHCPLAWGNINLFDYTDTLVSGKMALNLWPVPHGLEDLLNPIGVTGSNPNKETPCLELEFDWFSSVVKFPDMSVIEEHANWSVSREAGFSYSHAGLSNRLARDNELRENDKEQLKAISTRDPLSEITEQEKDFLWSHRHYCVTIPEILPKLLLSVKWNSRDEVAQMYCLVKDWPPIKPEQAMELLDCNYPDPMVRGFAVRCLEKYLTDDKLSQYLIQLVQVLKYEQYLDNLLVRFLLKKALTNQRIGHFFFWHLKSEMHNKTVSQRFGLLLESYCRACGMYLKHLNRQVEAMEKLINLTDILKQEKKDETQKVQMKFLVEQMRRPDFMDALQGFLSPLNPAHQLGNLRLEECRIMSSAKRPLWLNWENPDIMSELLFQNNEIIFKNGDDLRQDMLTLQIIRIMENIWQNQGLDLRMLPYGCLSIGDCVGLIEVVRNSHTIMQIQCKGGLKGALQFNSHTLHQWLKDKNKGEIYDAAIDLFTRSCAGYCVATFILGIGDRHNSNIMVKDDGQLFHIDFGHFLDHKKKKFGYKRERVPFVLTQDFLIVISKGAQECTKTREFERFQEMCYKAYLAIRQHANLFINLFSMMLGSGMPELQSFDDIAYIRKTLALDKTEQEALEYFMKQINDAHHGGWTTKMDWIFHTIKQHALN
# DYRK2 (human), sequence (Q92630 whole entry, looked up): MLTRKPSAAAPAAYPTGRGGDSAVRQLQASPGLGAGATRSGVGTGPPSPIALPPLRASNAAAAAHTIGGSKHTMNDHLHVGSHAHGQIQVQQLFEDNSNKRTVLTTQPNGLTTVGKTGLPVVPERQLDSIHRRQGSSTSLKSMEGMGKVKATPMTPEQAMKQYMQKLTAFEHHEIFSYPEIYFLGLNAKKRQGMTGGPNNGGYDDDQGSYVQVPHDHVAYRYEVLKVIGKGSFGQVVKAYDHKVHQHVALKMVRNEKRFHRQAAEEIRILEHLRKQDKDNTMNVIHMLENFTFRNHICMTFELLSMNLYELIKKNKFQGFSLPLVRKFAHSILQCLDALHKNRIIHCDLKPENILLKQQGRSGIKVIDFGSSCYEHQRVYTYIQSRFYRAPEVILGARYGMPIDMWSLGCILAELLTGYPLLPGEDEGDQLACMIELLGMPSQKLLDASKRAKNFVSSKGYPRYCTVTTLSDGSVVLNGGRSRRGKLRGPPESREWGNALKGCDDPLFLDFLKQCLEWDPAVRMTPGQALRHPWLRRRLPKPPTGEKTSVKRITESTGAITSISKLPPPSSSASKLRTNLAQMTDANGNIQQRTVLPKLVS
# CDKL1 (human), sequence (Q00532 whole entry, looked up): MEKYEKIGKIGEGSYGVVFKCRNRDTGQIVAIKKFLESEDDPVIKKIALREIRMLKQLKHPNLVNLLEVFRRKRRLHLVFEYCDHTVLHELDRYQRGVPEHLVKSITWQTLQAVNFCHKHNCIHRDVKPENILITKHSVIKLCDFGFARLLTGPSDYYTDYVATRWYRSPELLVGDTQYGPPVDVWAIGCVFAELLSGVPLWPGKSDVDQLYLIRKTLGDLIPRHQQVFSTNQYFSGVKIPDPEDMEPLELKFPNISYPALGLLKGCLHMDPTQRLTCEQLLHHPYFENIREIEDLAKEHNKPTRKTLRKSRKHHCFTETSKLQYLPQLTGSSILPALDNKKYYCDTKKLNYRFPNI
# PIK3CA (human), sequence (P42336 whole entry, looked up): as the sequence (P42336 whole entry M1043I, looked up) above, with I1043M counted along it
compound,measurement,setting,value
CCN1CCN(Cc2ccc(NC(=O)c3ccc(C)c(/C=C/c4cnc5[nH]ccc5c4OC)c3)cc2C(F)(F)F)CC1,"kinase still bound, per cent of control",INSRR (human),100%
same,"kinase still bound, per cent of control",IRAK3 (human),65%
same,"kinase still bound, per cent of control",DYRK2 (human),78%
same,"kinase still bound, per cent of control",MAP3K5 (human),35%
same,"kinase still bound, per cent of control",PRKCQ (human),31%
same,"kinase still bound, per cent of control",AKT1 (human),100%
same,"kinase still bound, per cent of control",NEK2 (human),100%
same,"kinase still bound, per cent of control",CDK3 (human),100%
same,"kinase still bound, per cent of control",ITK (human),18%
same,"kinase still bound, per cent of control",MET (human),40%
same,"kinase still bound, per cent of control",MAP3K3 (human),1.4%
same,"kinase still bound, per cent of control",PIK3CA (human),100%
same,"kinase still bound, per cent of control",CDK9 (human),96%
same,"kinase still bound, per cent of control",ERBB2 (human),0%
same,"kinase still bound, per cent of control",NUAK1 (human),100%
same,"kinase still bound, per cent of control",RIPK2 (human),1.8%
same,"kinase still bound, per cent of control",ULK1 (human),8.5%
same,"kinase still bound, per cent of control",CDKL1 (human),61%
same,"kinase still bound, per cent of control",MAPK9 (human),0.1%
same,"kinase still bound, per cent of control",AAK1 (human),26%
same,"kinase still bound, per cent of control",MYLK2 (human),0.55%
same,"kinase still bound, per cent of control",CSNK1G2 (human),39%
same,"kinase still bound, per cent of control",PRKCI (human),100%
same,"kinase still bound, per cent of control",FGR (human),0.15%
same,"kinase still bound, per cent of control",YES1 (human),0.65%
same,"kinase still bound, per cent of control",[1],84%
same,"kinase still bound, per cent of control",TAOK2 (human),0.5%
same,"kinase still bound, per cent of control",HUNK (human),18%
same,"kinase still bound, per cent of control",RIOK1 (human),0.75%
same,"kinase still bound, per cent of control",TLK2 (human),93%
same,"kinase still bound, per cent of control",CDK7 (human),41%
same,"kinase still bound, per cent of control",NEK7 (human),64%
same,"kinase still bound, per cent of control",CLK3 (human),100%
same,"kinase still bound, per cent of control",PIM1 (human),100%
same,"kinase still bound, per cent of control",PTK2 (human),67%
same,"kinase still bound, per cent of control",CAMK2G (human),100%
same,"kinase still bound, per cent of control",RET (human),0.1%
same,"kinase still bound, per cent of control",PRKG2 (human),91%
same,"kinase still bound, per cent of control",PRKG1 (human),100%
same,"kinase still bound, per cent of control",YSK4 (human),0.2%
same,"kinase still bound, per cent of control",CDK2 (human),96%
